SMILES strings stand for the structures.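 Five concentrations, 48 hours, 96-well plates. The concentration for 50% growth inhibition is given as GI50.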 The source made the active and inactive calls. No stated cut-off is given here; in the data, active = GI50 up to about 1.1 µM and inactive = higher.

Among the test systems are BT-549; COLO 205; IGROV-1; OVCAR-5; CCRF-CEM; HOP-62; PC-3; Malme-3M; NCI-H522; SN12C; MDA-N; U-251; HOP-92; SNB-75; DU-145; NCI-H226; SK-OV-3; T47D; HCT-15.
Common to all, as to experiment: NCI-60 cell line screen, 48 h

Take `Cc1csc2c(=O)n(C3OC(CO)C(O)C3O)c(=O)[nH]c12` (stereo not given): the GI50 in the assay with BT-549, in the assay with COLO 205, in the assay on IGROV-1, in the assay with OVCAR-5, with CCRF-CEM and with HOP-62 was > 100 µM (inactive) in each case. Besides, the GI50 in the assay on PC-3, in the assay with Malme-3M, in the assay with NCI-H522, with SN12C, with MDA-N and in the assay with U-251 was > 100 µM (inactive) throughout. Moreover, the GI50 with HOP-92, with SNB-75, in the assay on DU-145 and with NCI-H226 was > 100 µM (inactive) in each case.
`CC(C)(C)OC(=O)N(CCCN)CCCCN`: the GI50 with SK-OV-3, in the assay on T47D, in the assay on BT-549, with COLO 205, in the assay with IGROV-1 and in the assay on OVCAR-5 was > 100 µM (inactive) each time. The GI50 in the assay on CCRF-CEM is > 100 µM (inactive); in the assay with HOP-62, > 100 µM (inactive); in the assay on PC-3 it was > 100 µM (inactive); with HCT-15 it was greater than 100 µM; in the assay on NCI-H522, > 100 µM (inactive); with SN12C, > 100 µM (inactive). Also, the GI50 with U-251, in the assay on HOP-92, in the assay with DU-145 and with NCI-H226 was > 100 µM (inactive) throughout.
For `O=C1/C(=C/c2cccc(O)c2)COc2ccccc21`, the GI50 with SK-OV-3 was 21.3 µM (inactive); in the assay on T47D, 6.47 µM (inactive); with BT-549, 15.5 µM (inactive); in the assay on COLO 205, 13.5 µM (inactive); with IGROV-1 it was 7.96 µM (inactive); in the assay with OVCAR-5 it was 8.67 µM (inactive). The GI50 in the assay on CCRF-CEM was 1.59 µM (inactive); in the assay on HOP-62, 15 µM (inactive); in the assay with PC-3, 7.83 µM (inactive); in the assay with Malme-3M, 8.89 µM (inactive); with HCT-15 it was 1.42 µM; in the assay with NCI-H522, 2.51 µM (inactive). The GI50 in the assay with SN12C was 8.04 µM (inactive); with U-251, 1.87 µM (inactive); in the assay on HOP-92, 16.9 µM (inactive); in the assay on SNB-75 it was 15.5 µM (inactive); with DU-145 it was 14.2 µM (inactive); in the assay with NCI-H226, 11.4 µM (inactive).
As for `O=C(NC(Cc1ccccc1)(Cc1ccc(O)cn1)C(=O)O)c1ccccc1` (stereo not given), the GI50 in the assay with SK-OV-3 was > 100 µM (inactive); with BT-549, > 100 µM (inactive); in the assay on COLO 205 it was 84.7 µM (inactive); with IGROV-1, > 100 µM (inactive); in the assay with OVCAR-5, > 100 µM (inactive); in the assay on CCRF-CEM, 25.4 µM (inactive). Also, the GI50 in the assay with HOP-62 is > 100 µM (inactive); with PC-3, 76.4 µM (inactive); in the assay with Malme-3M, > 100 µM (inactive); in the assay on HCT-15, greater than 100 µM; with NCI-H522, > 100 µM (inactive); in the assay on MDA-N it was > 100 µM (inactive). Also, the GI50 is > 100 µM (inactive) with U-251; 33.8 µM (inactive) in the assay with HOP-92; 69.2 µM (inactive) in the assay with SNB-75; > 100 µM (inactive) in the assay with DU-145; 83 µM (inactive) in the assay on NCI-H226.
Turning to `COc1cc2c3c(n(C)c(=O)c2cc1OC)-c1cc2c(cc1/C3=C/CCCCBr)OCO2`, the GI50 in the assay with SK-OV-3 was > 100 µM (inactive); in the assay on T47D it was 3.76 µM (inactive); in the assay on BT-549, > 100 µM (inactive); in the assay on COLO 205, > 100 µM (inactive); in the assay with IGROV-1, 6.56 µM (inactive); with OVCAR-5 it was > 100 µM (inactive). Moreover, the GI50 is 1.7 µM (inactive) in the assay on CCRF-CEM; > 100 µM (inactive) with PC-3; > 100 µM (inactive) with Malme-3M; greater than 100 µM in the assay with HCT-15; 4.16 µM (inactive) in the assay with NCI-H522; > 100 µM (inactive) in the assay on MDA-N. For the same molecule, the GI50 was 40.9 µM (inactive) with U-251, 57.7 µM (inactive) with HOP-92 and 11.6 µM (inactive) in the assay with SNB-75.
On to `CCOC(=O)c1c(N2CCN(C)CC2)[nH]c(=O)c(C(c2c(Cl)cccc2Cl)c2c(O)c(C(=O)OCC)c(N3CCN(C)CC3)[nH]c2=O)c1O`, for which the GI50 in the assay with T47D is 16.5 µM (inactive); with BT-549, 20.6 µM (inactive); with COLO 205, 33.1 µM (inactive); in the assay on IGROV-1, 20.7 µM (inactive); in the assay on OVCAR-5, 43 µM (inactive); with CCRF-CEM, 31 µM (inactive). In addition, the GI50 is 30.3 µM (inactive) with HOP-62; 22.5 µM (inactive) with PC-3; 22.6 µM (inactive) in the assay on Malme-3M; 30.7 µM in the assay on HCT-15; 21.9 µM (inactive) in the assay with NCI-H522; 26.3 µM (inactive) in the assay with SN12C. The GI50 was 23.1 µM (inactive) with U-251, 19.1 µM (inactive) in the assay with HOP-92, 17.8 µM (inactive) in the assay on DU-145 and 28.6 µM (inactive) in the assay with NCI-H226.
For the molecule `O=c1[nH]c2ccccc2c2oc(-c3ccccc3)nc12`, the GI50 is 37.2 µM (inactive) in the assay with SK-OV-3; 51.2 µM (inactive) with T47D; 31.2 µM (inactive) in the assay on BT-549; 18.6 µM (inactive) in the assay on COLO 205; > 100 µM (inactive) in the assay with IGROV-1; > 100 µM (inactive) in the assay with OVCAR-5. Also, the GI50 with CCRF-CEM is 18.4 µM (inactive); with HOP-62 it was 15.8 µM (inactive); in the assay on PC-3, > 100 µM (inactive); in the assay with Malme-3M, > 100 µM (inactive); with HCT-15, greater than 100 µM; in the assay on NCI-H522, 61.5 µM (inactive). Also, the GI50 in the assay with SN12C was 16.5 µM (inactive); in the assay with MDA-N, 20.2 µM (inactive); in the assay on U-251, 24.7 µM (inactive); in the assay on HOP-92, 28.5 µM (inactive); in the assay with SNB-75, 20.2 µM (inactive); in the assay on NCI-H226, 88.9 µM (inactive).
With `O=C(O)/C(=C/C(=O)c1ccc(Cl)cc1)NNc1ccc([N+](=O)[O-])cc1[N+](=O)[O-]`, the GI50 is 35.6 µM (inactive) in the assay with SK-OV-3; 55.5 µM (inactive) in the assay with T47D; 23.2 µM (inactive) in the assay on BT-549; > 100 µM (inactive) with COLO 205; 66.7 µM (inactive) in the assay on IGROV-1; 82.8 µM (inactive) with OVCAR-5. The GI50 in the assay with CCRF-CEM was 23.6 µM (inactive); in the assay with HOP-62, 28.4 µM (inactive); in the assay on PC-3, 36.2 µM (inactive); in the assay with Malme-3M it was 30.5 µM (inactive); in the assay with HCT-15, 48.3 µM; in the assay on NCI-H522, 21.6 µM (inactive). The GI50 with SN12C was 41.8 µM (inactive); with U-251 it was 47.9 µM (inactive); in the assay on HOP-92 it was 22.9 µM (inactive); in the assay with DU-145, 47.2 µM (inactive); in the assay on NCI-H226, 23.7 µM (inactive).
On to `CC(=O)O[C@H]1C(=O)[C@@]2(C)[C@H]([C@H](OC(=O)c3cccc([N+](=O)[O-])c3)[C@]3(O)C[C@H](OC(=O)[C@H](O)[C@@H](NC(=O)c4ccccc4)c4ccccc4)C(C)=C1C3(C)C)[C@]1(OC(C)=O)CO[C@@H]1C[C@@H]2O`, for which the GI50 in the assay with SK-OV-3 was 0.00703 µM (active); in the assay with BT-549, 0.0376 µM (active); in the assay with COLO 205, 0.00474 µM (active); with IGROV-1, 0.00783 µM (active); in the assay on OVCAR-5, 0.0105 µM (active); with CCRF-CEM, 0.00479 µM (active). Also, the GI50 in the assay with HOP-62 is 0.0107 µM (active); in the assay with PC-3 it was 0.0065 µM (active); with HCT-15, 0.438 µM; with NCI-H522 it was 0.00362 µM (active); with SN12C it was 0.00695 µM (active); in the assay on MDA-N, 0.00285 µM (active). Besides, the GI50 is 0.00681 µM (active) with U-251; 0.022 µM (active) in the assay with HOP-92; 0.00759 µM (active) in the assay on SNB-75; 0.0177 µM (active) in the assay with DU-145; 0.00257 µM (active) with NCI-H226.
Turning to `C=C(C1=CC(=O)C(C)(C)O1)[C@@H]1CC=C([C@@H]2CC[C@H]3[C@@]2(C)CC[C@H]2C(C)(C)C(=O)[C@H](OC(=O)CC(C)(O)CC(=O)O)C[C@]32C)[C@H](O)O1` (stereo not given in full), the GI50 in the assay with SK-OV-3 is 19.2 µM (inactive); with BT-549 it was 2.06 µM (inactive); in the assay with COLO 205, 12.5 µM (inactive); in the assay on IGROV-1, 12.4 µM (inactive); in the assay with OVCAR-5 it was 14.5 µM (inactive); in the assay with CCRF-CEM, 2.19 µM (inactive). For the same molecule, the GI50 in the assay with HOP-62 was 21.1 µM (inactive); in the assay on PC-3 it was 13.2 µM (inactive); in the assay with Malme-3M, 13.4 µM (inactive); in the assay on HCT-15 it was 13.3 µM; in the assay on NCI-H522, 11.4 µM (inactive); with SN12C it was 15.3 µM (inactive). For the same molecule, the GI50 in the assay with MDA-N is 13.9 µM (inactive); with U-251, 13.5 µM (inactive); with HOP-92, 12.7 µM (inactive); with DU-145 it was 16.7 µM (inactive); with NCI-H226, 16.3 µM (inactive).
As for `CC12CCC(/C(=N/c3ccc([N+](=O)[O-])cc3)C1=O)C2(C)C` (stereo not given), the GI50 is 28.4 µM (inactive) with SK-OV-3; 16.3 µM (inactive) with T47D; 36.6 µM (inactive) in the assay on BT-549; 19.4 µM (inactive) with COLO 205; 25.1 µM (inactive) with IGROV-1; 51.5 µM (inactive) with OVCAR-5. For the same molecule, the GI50 was 25.2 µM (inactive) with HOP-62; 24.5 µM (inactive) in the assay with PC-3; 13.9 µM (inactive) in the assay on Malme-3M; 24.6 µM in the assay on HCT-15; 24.9 µM (inactive) in the assay on U-251; 25.7 µM (inactive) with DU-145. In addition, in the assay on NCI-H226, the GI50 is > 100 µM (inactive).

The values above are taken from ChEMBL document CHEMBL1201862, “PubChem BioAssay data set” (2004).
